“Also recorded” adds a separate entry of the source.
Assays:
[1] = tested on: Rest, Gsta4, Gstm1, Hmox1 transcripts in cortical cultures; assay: Quantitative real-time PCR of cluster 2 upregulated genes; format: cell-based, mouse; conditions: fenamidone 10 μM or indicated doses, 24 h, relative to vehicle
Method: Total RNA was extracted and purified using the RNeasy plus mini kit (Qiagen) following the manufacturer's instructions. RNA was quantified using Nanodrop 1000 (Thermo Scientific) and reverse transcribed using iScript Reverse Transcription Supermix (Bio-Rad). Quantitative real-time PCR analysis was performed in technical duplicates using SYBR Green PCR master mix (Applied Biosystems) in a 7500 Real-Time PCR instrument (Applied Biosystems). An amount of 10 ng of complementary DNA was used in each reaction. Fold change of expression of the target RNA in each treatment condition relative to the untreated sample were calculated by raising 2 to the power of −ΔΔCt. ΔΔCt was calculated by subtracting the ΔCt of the untreated sample to the ΔCt of each treatment condition. The ΔCt of each sample was calculated by subtracting the average Ct of Gapdh to the average Ct of the target RNA. The following primers were used at a final concentration of 0.5 μM:
Rest (F: 5′-[…]-3′, R: 5′-[…]-3′); Gsta4 (F: 5′-[…]-3′, R: 5′-[…]-3′); Gstm1 (F: 5′-[…]-3′, R: 5′-[…]-3′); Hmox1 (F: 5′-[…]-3′, R: 5′-[…]-3′); and Gapdh (F: 5′-[…]-3′, R: 5′-[…]-3′).

[2] = tested on: mitochondrial superoxide in cortical neurons; assay: Mitochondrial superoxide detection (MitoSOX Red live-cell imaging); format: cell-based, mouse; conditions: 2 h treatment, MitoSOX, vincristine 500 µM in Supplementary Fig. 10b
[3] = tested on: purified tubulin; assay: Tubulin polymerization assay (cell-free, BK011P); format: biochemical; conditions: 37 °C, fluorescence over 60 min, equimolar doses
[4] = tested on: mouse cortical neuron cultures; assay: Fluorescence immunocytochemistry for cellular composition (NeuN, Gfap, Iba1); format: cell-based; conditions: 10 μM, 24 h, relative to vehicle
[5] = tested on: mouse cortical neuron cultures; conditions: mouse, 24 h, 10 µM
[6] = in vivo; cited from earlier work

## CSC1=N[C@@](C)(c2ccccc2)C(=O)N1Nc1ccccc1 [fenamidone]
[1]
  Expression of Nrf2 target antioxidant response genes and Rest (qRT-PCR validation): Upregulated
[2]
  Mitochondrial superoxide (O2−) production: dose dependent
[2]; listed as Fenamidone
  Mitochondrial superoxide (O2−) production: concentration-dependent increase
[3]
  Effect on tubulin polymerization: did not impair
[4]
  Change in cellular composition (number of NeuN, Gfap or Iba1 positive cells): did not; also recorded: no significant change
[5]
  % Dead cells (vehicle subtracted): 1.638%
[6]
  Neurotoxicity in a set of assays used by regulatory agencies: No evidence of neurotoxicity

From paper PMC4821887, “Identification of chemicals that mimic transcriptional changes associated with autism, brain aging and neurodegeneration” (Nature Communications, 2016)
